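Interpolation was linear, between the two tested concentrations surrounding the appropriate level; five concentrations were tested over 48 hours in 96-well plates. Here, GI50 denotes the concentration required for 50% inhibition of growth. TGI: concentration producing complete growth inhibition.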
Assays:
Experiment in all cases: growth of human tumour cells (NCI), 48 h
[1] = test system: SK-MEL-28 melanoma
[2] = test system: SK-OV-3 ovarian
[3] = test system: K-562 leukemia
[4] = test system: SF-268 CNS
[5] = test system: SF-539 CNS
[6] = test system: HL-60(TB) leukemia
[7] = test system: SW-620 colon
[8] = test system: HCC-2998 colon
[9] = test system: SR leukemia
[10] = test system: T-47D breast

SMILES | GI50 [1] | TGI [1] | GI50 [2] | TGI [2] | GI50 [3] | TGI [3] | GI50 [4] | TGI [4] | GI50 [5] | TGI [5] | GI50 [6] | TGI [6] | GI50 [7] | TGI [7] | GI50 [8] | TGI [8] | TGI [9] | GI50 [10] | TGI [10] | GI50 [9]
C1CCC([PH+](C2CCCCC2)C2CCCCC2[PH+](C2CCCCC2)C2CCCCC2)CC1.[Au].[CH-]1CCCCC1CC1CCCC[N-]1 (stereo not given) | 0.433 µM | 1.94 µM | 0.355 µM | 1.36 µM | 0.246 µM | > 100 µM | 0.405 µM | 2.11 µM | 0.355 µM | 1.41 µM | 0.277 µM | 0.833 µM | 0.371 µM | 1.41 µM | 0.404 µM | 1.49 µM |  |  |  | 
Cc1ccc2c(C3Cc4ccccc4N3C(=O)/C=C\C(=O)O)c(C)[nH]c2c1 (stereo not given) |  | > 100 µM |  | > 100 µM |  | 73 µM |  |  |  | > 100 µM |  | 43.8 µM |  | > 100 µM |  | > 100 µM | 72.9 µM |  |  | 
N#CC(C#N)=C1NC(=O)CC(=O)N1 |  |  |  | > 100 µM |  | > 100 µM |  | > 100 µM |  | > 100 µM |  | > 100 µM |  | > 100 µM |  | > 100 µM | > 100 µM |  |  | 
O=C1NC(=O)C2C(=O)NC(=O)C1C2c1c(Cl)cccc1Cl (stereo not given) |  | > 100 µM |  | > 100 µM |  | > 71.7 µM |  | > 96.7 µM |  | > 100 µM |  | > 63.4 µM |  | > 47.1 µM |  | > 100 µM | > 100 µM |  |  | 
CC(=O)Nc1ccc(SC#N)c2c(NC(C)=O)cccc12 |  | > 100 µM |  | > 100 µM |  | > 100 µM |  | > 100 µM |  | > 100 µM |  | 71.5 µM |  | > 100 µM |  | > 100 µM | > 100 µM |  |  | 
CCC(=O)C12OC3OC(C)(C)OC3C1OC(C)(C)O2 (stereo not given) |  | > 100 µM |  | > 100 µM |  | > 100 µM |  | > 100 µM |  | > 100 µM |  | > 100 µM |  | > 100 µM |  | > 100 µM | > 100 µM |  |  | 
N#CC(=C1C=CC(=NO)C=C1)c1ccc(Cl)cc1 |  | 37.9 µM |  | 48.9 µM |  |  |  | 48 µM |  | 25.4 µM |  | 9.6 µM |  | 24 µM |  | 33.1 µM | 43.5 µM |  |  | 
O=C1CC(c2c[nH]c3ccccc23)C(=O)N1 (stereo not given) |  | > 100 µM |  | > 100 µM |  | > 100 µM |  |  |  | > 100 µM |  | > 100 µM |  | > 100 µM |  | > 100 µM |  |  |  | 
COc1cc(C(=O)C/C(CCC(=O)Nc2ccccc2[N+](=O)[O-])=N\NC(N)=O)ccc1O |  | > 100 µM |  | > 100 µM |  | > 100 µM |  | > 100 µM |  | > 100 µM |  | > 100 µM |  | > 100 µM |  | > 100 µM | > 100 µM |  |  | 
COC(=O)C1CC2CC(=NNC(N)=O)CC2C1 (stereo not given) |  | > 100 µM |  | > 100 µM |  | > 100 µM |  | > 100 µM |  | > 100 µM |  | > 100 µM |  | > 100 µM |  | > 100 µM |  |  |  | 
CCN(CC)CC1c2ccccc2C(CNc2ccccc2)N1C (stereo not given) |  | > 100 µM |  | > 100 µM |  | > 100 µM |  | > 100 µM |  |  |  | > 100 µM |  | > 100 µM |  | > 100 µM |  |  |  | 
Cc1[nH]c2ccccc2c1C(=O)CC1(O)C(=O)Nc2c(Cl)cc(Cl)cc21 (stereo not given) |  | 62 µM |  | > 100 µM |  | 58 µM |  | 57.3 µM |  | 61.7 µM |  | 37.6 µM |  | 52 µM |  | > 100 µM | 54.8 µM |  |  | 
Cc1ccc(-c2nnc(-c3nn(-c4ccccc4)c4nc5ccccc5nc34)o2)cc1 |  | > 100 µM |  | 24.4 µM |  | 61.9 µM |  | 38.4 µM |  | 9.62 µM |  | > 100 µM |  | > 100 µM |  |  | > 100 µM |  |  | 
CC1(O)C=CC(=O)C=C1 |  | 38.5 µM |  | > 100 µM |  | > 100 µM |  | 29.2 µM |  | 54.9 µM |  | 52.8 µM |  | > 100 µM |  | > 100 µM | 61.2 µM |  |  | 
COC(=O)C1(C)CCc2c(OC)ccc(OC)c2C1=O (stereo not given) |  | > 100 µM |  | > 100 µM |  | > 100 µM |  | > 100 µM |  | > 100 µM |  | > 100 µM |  | > 100 µM |  | > 100 µM | > 100 µM |  |  | 
O=C(/C=C\c1cccc([N+](=O)[O-])c1)/C=C/c1cccc([N+](=O)[O-])c1 | > 100 µM | > 100 µM | 20 µM | > 100 µM |  |  | 3.08 µM | 9.89 µM | 7.89 µM | > 100 µM |  |  | 1.9 µM | 4.53 µM | 2.6 µM | 6.9 µM |  | > 100 µM | > 100 µM | 
C/C(=C\c1ccc2ccccc2c1)[N+](=O)[O-] | 1.95 µM | 4.06 µM | 14.8 µM | 28.7 µM | 2.23 µM | 7.99 µM | 1.91 µM | 3.72 µM | 1.64 µM | 3.07 µM | 2.03 µM | 5.49 µM | 1.78 µM | 3.54 µM | 2.08 µM | 4.23 µM | 2.56 µM |  |  | 0.409 µM
